SMILES	melting point
CCN(Cc1ccccc1)c1ncnc2[nH]ccc12 [Example 2, Benzyl-ethyl-(7H-pyrrolo[2,3-d]pyrimidin-4-yl)-amine]	170 to 172 °C
C=CCN(c1ncnc2[nH]ccc12)C1CCCC1 [Example 6, Allyl-cyclopentyl-(7H-pyrrolo[2,3-d]pyrimidin-4-yl)-amine]	173 to 175 °C
CCN(c1ncnc2[nH]ccc12)C1CCCCCC1 [Example 14, Cycloheptyl-ethyl-(7H-pyrrolo[2,3-d]pyrimidin-4-yl)-amine]	168 to 169 °C
CCN(c1ncnc2[nH]ccc12)C1CCCCCCC1 [Example 15, Cyclooctyl-ethyl-(7H-pyrrolo[2,3-d]pyrimidin-4-yl)-amine]	155 to 156 °C
CCC(C)N(C)c1ncnc2[nH]ccc12 (centres unmarked) [Example 26, sec-Butyl-methyl-(7H-pyrrolo[2,3-d]pyrimidin-4-yl)-amine]	146 to 148 °C
Cc1cc2c(N(C)C3CCCCC3)ncnc2[nH]1 [Example 87, Cyclohexyl-methyl-(6-methyl-7H-pyrrolo[2,3-d]pyrimidin-4-yl)-amine]	221 °C (dec.)
c1nc(SC2CCCCC2)c2cc[nH]c2n1 [Example 90, 4-Cyclohexylsulfanyl-7H-pyrrolo[2,3-d]pyrimidine]	162 to 163 °C

The remaining lines, values ahead:

melting point	SMILES
170 to 172 °C	Clc1c[nH]c2ncnc(N3CCCCC3)c12 [Example 91, 5-Chloro-4-piperidin-1-yl-7H-pyrrolo[2,3-d]pyrimidine]
152 to 153 °C	CN(c1ncnc2[nH]cc(Cl)c12)C1CCCCCC1 [Example 93, (5-Chloro-7H-pyrrolo[2,3-d]pyrimidin-4-yl)-cycloheptyl-methyl-amine]
151 to 153 °C	CN(c1ncnc2[nH]cc(Cl)c12)C1CCCCCCC1 [Example 94, (5-Chloro-7H-pyrrolo[2,3-d]pyrimidin-4-yl)-cyclooctyl-methyl-amine]
200 °C	CN(c1ncnc2[nH]cc(-c3ccccc3)c12)C1CCCCC1 [Example 96, Cyclohexyl-methyl-(5-phenyl-7H-pyrrolo[2,3-d]pyrimidin-4-yl)amine]
220 °C	CN(c1ncnc2[nH]cc(-c3ccc(F)cc3)c12)C1CCCCC1 [Example 97, Cyclohexyl-[5-(4-fluoro-Phenyl)-7H-pyrrolo[2,3-d]pyrimidin-4-yl]-methyl-amine]
209 to 211 °C	N#Cc1c[nH]c2ncnc(N3CCCCC3)c12 [Example 100, 4-Piperidin-1-yl-7H-pyrrolo[2,3-d]pyrimidine-5-carbonitrile]
179 to 181 °C	C#Cc1c[nH]c2ncnc(N3CCCCC3)c12 [Example 101, 5-Ethynyl-4-piperidin-1-yl-7H-pyrrolo[2,3-d]pyrimidine]
